One series deals with T1, Pin1 (Homo sapiens, UniProt Q13526).
T1 construct: purchased Sino Biological Inc., Beijing, China
The series is described as follows: Pin1 inhibition, protease-coupled assay. Format: biochemical. Particulars: 10 °C; for inhibition at 10 µM: Pin1, compound at 10 μM; for pIC50: Pin1, protease-coupled assay. How it is done:
To investigate the Pin1 inhibitory potency of all synthesized compounds, the inhibition ratio at 10 μM or IC50 of all synthesized compounds was determined using protease-coupled assay.
Pin1 inhibitory activities were measured at 10 °C by protease-coupled assay as reported previous. Suc-Ala-Glu-cis-Pro-Phe-4-nitroaniline (Bachem, Bubendorf, Switzerland) in 0.47 mol/L, LiCl/trifluoroethanol was used as the substrate. The assay buffer (860 μL of 35 mM HERES at pH 7.8), Pin1 (20 μL, Bought from Sino Biological Inc., Beijing, China) and target compounds (10 μL of varying comcentrations in DMSO) were pre-equilibtated in the cuvette at 10 °C for 30 min. Then, 150 uL of ice-cooled chymotrypsin (60 mg/mL in 0.001 M/HCl) was added and mixed immediately. Additional substrate (40 μL) was added to start the assay and the reaction was monitored by absorbance at 390 nm for 90 s. For each compound, four concentrations (10 μM, 3.3 μM, 1.1 μM, 0.37 μM) were chosen, and the assay was performed in duplicate. The data was analyzed by Graphpad Prism 6.0.

The subject of a further series is PC-3 cells. The series is described as follows: In vitro anti-proliferative MTT assay. Particulars: for GI50: Homo sapiens, PC-3 cells, MTT, 96 h. Type of series: cell-based, human. How it is done: As for Pin1 was overexpressed in human prostate cancer cells, the antiproliferative activity of these benzimidazole derivatives against PC-3 cells were further evaluated by MTT assay. Meanwhile, the polar surface area (PSA) of these compounds was calculated under the optimal conformation since PSA is the key indicator of membrane permeability.
The tested cells were plated in 96-well microtiter plates with a density of 2,000 cells/well and incubated in a humidified atmosphere with 5% CO2 at 37 °C for 24 h. The cells were then exposed to tested compounds of different concentrations in triplicate. After incubated for 96 h, 50 μL of 3-(4,5-dimethylthiazol-2-yl)-2,5-diphenyltetrazolium bromide (MTT) solution (2 mg/mL) was added to each well and incubated for an additional 4 h. Then the suspernatant was discarded and the fromazan was dissolved in 200 μL of dimethyl sulfoxide (DMSO). The plate was oscillated subtly at room temperature for 10 min before the absorbance was measured at 570 nm by a microplate reader. Cell inhibitory ratio was calculated with the following formula:Inhibitory Rate (%) = [(Acontrol − Atreated)/Acontrol] × 100%(1)
The GI50 was determined as the concentration that caused half inhibition of cell proliferation. All experiments were performed three times independently, and the results were reported presented as the mean.
(Tetrazolium dyes change colour on reduction, which living cells bring about.)

pIC50: −log10 of the molar value.

T1 sequence (Q13526 whole entry): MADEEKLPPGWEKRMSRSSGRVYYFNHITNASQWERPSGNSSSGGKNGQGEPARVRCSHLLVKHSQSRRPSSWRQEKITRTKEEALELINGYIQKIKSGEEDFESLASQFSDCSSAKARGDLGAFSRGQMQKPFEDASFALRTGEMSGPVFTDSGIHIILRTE

As usually defined, the melting point is the temperature, or range, at which the solid turns liquid. For orientation: inhibition means the change of the read-out against control, counted positive when it falls. Higher therefore signals strong suppression. One may read the GI50 as the concentration that inhibits growth by half. In turn, `O=C(O)/C=C/c1nc2ccccc2n1CCC(=O)NCc1ccc(Br)cc1` [Compound 6j, (E)-3-(1-(3-((4-Bromobenzyl)amino)-3-oxopropyl)-1H-benzo[d]imidazol-2-yl)acrylic acid] registered a melting point of 210 to 212 °C. This molecule also registered an inhibition at 10 µM at Pin1 of 59%. Besides, in the series on PC-3 cells, the GI50 was above 50 µM.
One may read the pIC50 as the negative decadic logarithm of the IC50, by convention in mol/L. A higher pIC50 goes with a small IC50. On to `Cc1ccc(NC(=O)CCn2c(/C=C/C(=O)O)nc3ccccc32)cc1` [Compound 6d, (E)-3-(1-(3-Oxo-3-(p-tolylamino)propyl)-1H-benzo[d]imidazol-2-yl)acrylic acid], for which the melting point fell in the range of 221 to 222 °C. On Pin1, this molecule gave an inhibition at 10 µM of 75% and a pIC50 of 5.78. The molecule further had a GI50 with PC-3 cells of 17.4 µM. Further, in the series on PC-3 cells (result in words), the “antiproliferative activity against human prostate cancer PC-3 cells” value is listed as “moderate antiproliferative activity”.
As for `O=C(O)/C=C/c1nc2ccccc2n1CCC(=O)N1CCOCC1` [Compound 6b, (E)-3-(1-(3-Morpholino-3-oxopropyl)-1H-benzo[d]imidazol-2-yl) acrylic acid], the melting point lay in the range of 207 to 209 °C. At Pin1, this molecule showed an inhibition at 10 µM of 27%. Moreover, the concentration for 50% growth inhibition (GI50) in the series on PC-3 cells was above 50 µM.
`COc1cc(NC(=O)CCn2c(-c3nc(C(=O)O)cs3)nc3ccccc32)cc(OC)c1` [Compound 13e, 2-(1-(3-((3,5-Dimethoxyphenyl)amino)-3-oxopropyl)-1H-benzo[d]imidazol-2-yl)thiazole-4-carboxylic acid] registered a melting point of 208 to 210 °C. This molecule registered an inhibition at 10 µM against Pin1 of 79%. Further, the GI50 in the series on PC-3 cells is above 50 µM.
`O=C(CCn1c(-c2nc(C(=O)O)cs2)nc2ccccc21)Nc1cccc(Br)c1` [Compound 13b, 2-(1-(3-((3-Bromophenyl)amino)-3-oxopropyl)-1H-benzo[d]imidazol-2-yl)thiazole-4-carboxylic acid] registered a melting point of 210 to 212 °C. On Pin1, this molecule had an inhibition at 10 µM of 87% and a pIC50 of 6.05. The molecule further gave a GI50 in the series on PC-3 cells above 50 µM.
The corresponding values for `O=C(CCn1c(-c2nc(C(=O)O)cs2)nc2ccccc21)Nc1cc(Cl)cc(Cl)c1` [Compound 13i, 2-(1-(3-((3,5-Dichlorophenyl)amino)-3-oxopropyl)-1H-benzo[d]imidazol-2-yl)thiazole-4-carboxylic acid] are 192 to 194 °C, 80%, 5.87 and above 50 µM.
`COc1ccc(CNC(=O)CCn2c(/C=C/C(=O)O)nc3ccccc32)cc1` [Compound 6l, (E)-3-(1-(3-((4-Methoxybenzyl)amino)-3-oxopropyl)-1H-benzo[d]imidazol-2-yl)acrylic acid] yielded a melting point of 203 to 205 °C. On Pin1, this molecule displayed an inhibition at 10 µM of 42%. The GI50 in the series with PC-3 cells was above 50 µM.
The like results for `Cc1ccc(NC(=O)CCn2c(-c3nc(C(=O)O)cs3)nc3ccccc32)cc1F` [Compound 13j, 2-(1-(3-((3-Fluoro-4-methylphenyl)amino)-3-oxopropyl)-1H-benzo[d]imidazol-2-yl)thiazole-4-carboxylic acid] were, in that order, 204 to 206 °C, 72% and above 50 µM.
As to `O=C(CCn1c(-c2nc(C(=O)O)cs2)nc2ccccc21)Nc1cccc(C(F)(F)F)c1` [Compound 13g, 2-(1-(3-Oxo-3-((3-(trifluoromethyl)phenyl)amino)propyl)-1H-benzo[d]imidazol-2-yl)thiazole-4-carboxylic acid], the melting point was in the range of 178 to 180 °C. On Pin1, the inhibition at 10 µM was 99% and the pIC50 is 6.43. This molecule displayed a 50% growth inhibitory concentration (GI50) in the series with PC-3 cells above 50 µM.
At Pin1, `O=C1C=CC(=O)c2c(O)cccc21` [Juglone, reference compound] showed a pIC50 of 5.00. In the series with PC-3 cells, the GI50 was 4.89 µM.

For the origin of these results see publication PMC6479814, “Structure-Based Design of Novel Benzimidazole Derivatives as Pin1 Inhibitors” (Molecules, 2019).
